Reference: PMC12040169 (PLOS Biology, 2025)

assay: in vitro; details: human, hela cells

SMILES	viability at 28.5 h, 10 µM
NC(=O)COC(=O)COc1ccc(Cl)cc1Cl [CBK058628]	85.8%

same assay, conditions: human, hela cells, % viability

SMILES	viability at 28.5 h, 10 µM
CCCc1cc(C(=O)OC)c(NC(=O)c2c(C)noc2C)s1 [CBK058088]	92.5%
CN(C(=O)CSc1nnn(C)n1)c1ccccc1 [CBK058129]	117%
O=C(Nc1ccccc1)c1cccc(S(=O)(=O)NCc2cccs2)c1 [CBK058153]	87.1%
Cc1cc(-c2ccccc2)nc(SCC(=O)Nc2nnc(C)s2)n1 [CBK058194]	87.3%
CCCNC(=O)COc1ccc(CC)cc1 [CBK058199]	93.9%
Cn1nnnc1SCC(=O)Nc1ccc(Cl)c(Cl)c1 [CBK058218]	108%
O=C(Nc1ccc(Cl)cc1Cl)C1CC2CCC1C2 (centres unmarked) [CBK058237]	102%
CCCC(CCC)C(=O)Nc1ccc(NC(=O)c2ccco2)c(C)c1 [CBK058263]	91.9%
CC1Cc2ccccc2N1C(=O)c1nn(C)cc1I (centres unmarked) [CBK058268]	97.3%
CCc1nnc(NC(=O)c2cc(OC)c(OC)c(OC)c2)s1 [CBK058342]	93.1%
CCC(Sc1nccn1C)C(=O)Nc1ccc(S(N)(=O)=O)cc1 (centres unmarked) [CBK058413]	107%
Cn1c(CNC2CCCCC2)nc2ccccc21 [CBK058416]	111%
CCC(C)(C)c1nnc(NC(=O)COc2ccc(Cl)cc2Cl)s1 [CBK058435]	103%
O=C1CC(C(=O)Nc2c(Cl)cccc2Cl)C2(CCCCC2)O1 (centres unmarked) [CBK058445]	95.9%
Nc1nonc1C(=O)NCCNC(=O)c1ccco1 [CBK058480]	99.1%
COc1cc(C(=O)NCc2ccccn2)cc(OC)c1OC [CBK058552]	88.3%
Ic1ccc(NCc2cn3ccccc3n2)cc1 [CBK058563]	91.4%
O=C(NCc1ccccn1)Nc1cccc(Cl)c1 [CBK058569]	95.9%
O=C(O)CCC(=O)Nc1ccccc1C(=O)Nc1ccccc1 [CBK058571]	92.4%
O=C(NCC1CCCO1)c1sc2ccccc2c1Cl (centres unmarked) [CBK058604]	93.3%
c1ccc(CNc2nc(-c3ccncc3)cs2)cc1 [CBK058609]	91%
O=C(Nc1ncc(Cc2ccc(F)cc2)s1)C1CCCCC1 [CBK058611]	105%
COc1ccc(NC(=O)CSc2nnc(N)s2)cc1 [CBK058635]	104%

SMILES	viability at 28.5 h, 10 µM
O=C(Nc1nc2ccccc2s1)c1cnccn1 [CBK058664]	83.9%
O=C(Nc1ccccc1)c1onc2c1CCCC2 [CBK058703]	108%
Cc1ccc(N(CC(=O)NCC2CCCO2)S(C)(=O)=O)cc1 (centres unmarked) [CBK058709]	88.1%
CCC(=O)NC(=S)Nc1cccc(NC(=O)c2cccc(Cl)c2)c1 [CBK058759]	93.6%
COC(=O)C(CC(C)C)Nc1nc(OC)cc(OC)n1 (centres unmarked) [CBK058765]	121%
Cc1cc(C)cc(NC(=O)C2C3C4CCC(C4)C23)c1 (centres unmarked) [CBK058768]	108%
Cn1nnnc1NC(=O)c1ccccc1F [CBK058776]	102%
CC(CNCC1CCCO1)COc1cccc(Cl)c1 (centres unmarked) [CBK058789]	96%
O=[N+]([O-])c1ccccc1S(=O)(=O)NCCSCc1ccc(Cl)c(Cl)c1 [CBK058810]	104%
CCOc1ccccc1NC(C)CC(=O)O (centres unmarked) [CBK058826]	82.8%
CCOC(=O)c1sc(NC(=O)C2CCCO2)c(C(N)=O)c1C (centres unmarked) [CBK058830]	91.3%
Cc1cc(C)nc(NC(=O)C2C3C=CC(C3)C2C(=O)O)c1 (centres unmarked) [CBK058843]	104%
O=C(c1ccc(COc2ccc(I)cc2)cc1)N1CCCCCC1 [CBK058852]	83.4%
O=C(O)C1C2C=CC(O2)C1C(=O)NCc1ccccn1 (centres unmarked) [CBK058859]	99.1%
CC1=NN(C(=O)c2c(Cl)c(C)nn2C)C(O)(C(F)(F)F)C1 (centres unmarked) [CBK058892]	117%
CC1=NN(C(=O)c2ccc(Cl)cc2)C(C)(C)C1 [CBK058904]	111%
O=C(NC1=NCCS1)c1cc2ccccc2o1 [CBK058927]	80.8%
O=C(Cc1cccc(F)c1)N1CCOCC1 [CBK058928]	83.9%
CCOC(=O)COc1ccc(C#N)cc1OCC [CBK058937]	103%
Cc1ccc(CNC(=O)CCC(=O)O)cc1 [CBK058951]	120%
O=S(=O)(Cc1ccc(Cl)cc1Cl)N1CCOCC1 [CBK058967]	78.1%
CCC(NC(=O)c1csc2c1CCCC2)c1ccccc1 (centres unmarked) [CBK059006]	108%
O=C(NC1CCCCCC1)c1ccc(COCC(F)(F)C(F)F)cc1 [CBK059012]	114%

SMILES	viability at 28.5 h, 10 µM
Cc1cc(Cl)ccc1OCCCC(=O)N1CCc2ccccc21 [CBK059016]	97.8%
CN(C)CCNC1CS(=O)(=O)CC1O (centres unmarked) [CBK059025]	84.8%
CN(C)CCN(C)S(=O)(=O)c1ccc(C(C)(C)C)cc1 [CBK059035T]	94.7%
CN1CCC(N(C)S(=O)(=O)c2ccc(C(C)(C)C)cc2)C1 (centres unmarked) [CBK059036T]	98.5%
O=S(=O)(c1ccc(F)c(Cl)c1)n1ccc2c(N3CCNCC3)nccc21 [CBK059059C]	90.7%
O=S(=O)(c1c(Cl)cccc1Cl)n1ccc2c(N3CCNCC3)nccc21 [CBK059060C]	91.4%
O=S(=O)(c1ccc(F)cc1F)n1ccc2c(N3CCNCC3)nccc21 [CBK059061C]	89.7%
COc1ccc(OC)c(S(=O)(=O)n2ccc3c(N4CCNCC4)nccc32)c1 [CBK059067C]	101%
Cc1ccc([N+](=O)[O-])cc1S(=O)(=O)n1ccc2c(N3CCNCC3)nccc21 [CBK059068C]	96.5%
Cc1cc(F)c(S(=O)(=O)NCCN2CCOCC2)cc1NC(=O)c1ccc(Br)o1 [CBK059091C]	89.7%
O=C(O)CC1SC(Nc2cc(C(F)(F)F)cc(C(F)(F)F)c2)=NC1=O (centres unmarked) [CBK059095]	89.8%
O=C(O)CC1SC(Nc2ccccc2F)=NC1=O (centres unmarked) [CBK059096]	94.9%
CCNC(=S)N1CC[C@@H]2N(C)CC[C@]2(c2ccc(OC)c(OC)c2)CC1 [CBK059113T]	88.5%
COc1ccc2c(c1)C(C)CC(C)(C)N2C(=O)CSc1nnc(-c2ccco2)n1C (centres unmarked) [CBK059169]	102%
C=CCn1c(SCC(=O)N2c3ccccc3C(C)(c3ccccc3)CC2(C)C)nnc1-c1ccncc1 (centres unmarked) [CBK059171]	83.3%
CCCn1c(SCC(=O)N2c3ccc(F)cc3CCC2C)nnc1-c1cccnc1 (centres unmarked) [CBK059187]	94%
CS(=O)(=O)Nc1ccc(N2CCNCC2)c2ccccc12 [CBK059355C]	79.3%
O=C([C@@H]1Cc2c([nH]c3ccccc23)C2(CCN(Cc3ccccc3)C2)N1)N1CCOCC1 (some centres unmarked) [CBK059363T]	97.3%
Cc1cc(F)c(S(N)(=O)=O)cc1NC(=O)c1ccc(CN2CCOCC2)o1 [CBK059376C]	97.7%
CCS(=O)(=O)Nc1cc(N2CCNCC2)c2occc2c1 [CBK059429C]	118%
CCc1cccc(CC)c1NC(=O)CC1SC(NCc2ccc(C)cc2)=NC1=O (centres unmarked) [CBK059431]	118%
